Measurements: patent US20060030603A1, “Novel aryl urea analogs and use thereof as antibacterial agents” (priority 2004, published 2006)

Columns and labels:
[1] = test system: S. aureus ATCC 13709; test: MIC assay, S. aureus; assay type: cell-based
Method: In vitro structure/activity relationship (“SAR”) tests were performed according to the following procedure: MIC assays were carried out in a 150 μL volume in duplicate in 96-well clear flat-bottom plates. The bacterial suspension from an overnight culture growth in the appropriate medium was added to a solution of test compound in 0.5% DMSO in water. Final bacterial inoculum was approximate 10^3-10^4 CFU/well. The percentage growth of the bacteria in the test wells relative to that observed for a control well containing no compound was determined by measuring absorbance at 595 nm (A595) after 20-24 h at 37° C. […] The bacterial strains used for the assays include S. aureus ATCC 13709, S. pyogenes ATCC 49399, E. faecalis ATCC 29212, E. faecium ATCC 6569, E. coli ATCC 25922, K. pneumoniae ATCC 13383, P. vulgaris ATCC 8427, P. aeruginosa ATCC 25416. The results of the in vitro SAR tests are in Tables 1-3.

[2] = test system: S. aureus (ATCC 13709); test: Mouse Protection Assay (lethal murine model of bacterial infection); assay type: in vivo, ICR-CD-1 female mice; conditions: 1 × 2 mg/Kg, positive control, 1 h and 3 h post infection, one week
Method: The in vivo tests were preformed according to the following procedure:
Mouse Protection Assay: 10 mice/dose group (ICR-CD-1 female mice 18-20 grams, Charles River) were infected with a lethal dose (10^6 CFU/mouse) of S. aureus (ATCC 13709) suspended in 7.5% hog Gastric Mucin IP. The infected animals were treated at 1 h and 3 h post infection with either compound 12e (lactate salt) from 37 mg/kg down to 2.3 mg/kg or compound 14b (HCl salt) from 75 mg/kg down to 2.3 mg/kg (0.1 mL/mouse). The positive control drug was Vancomycin (Eli Lilly) 1 mg/kg.

[3] = Table 2, benzylamino group modified analogs
[4] = Table 1, thiourea/urea analogs, acetate salts

Structure (SMILES)	MIC S. aureus [1, 3]	MIC S. aureus [1, 4]	other results
COc1cc(CNCCCNC(=O)Nc2ccc(C(F)(F)F)cc2)cc(OC)c1 [12p]	50 to 100 µM		
O=C(NCCCNCc1ccc(Cl)c(Cl)c1)Nc1ccc(C(F)(F)F)cc1 [12q]	3 to 6 µM		
O=C(NCCCNCc1cc(Br)cc(Br)c1O)Nc1ccc(C(F)(F)F)cc1 [12r]			MIC ([1]; Table 2, benzylamino group modified analogs, read-out: MIC S. aureus): >100 µM
Fc1ccc(NC(=S)NCCCNCc2cc(Br)cc(Br)c2)cc1 [8l]		12 to 25 µM	
O=C(NCCCNCc1cc(Cl)cc(Cl)c1)Nc1ccc(C(F)(F)F)cc1 [12m]	6 to 12 µM		
O=C(NCCCNCc1ccc(OC(F)(F)F)cc1)Nc1ccc(C(F)(F)F)cc1 [12d]	3 to 6 µM		
S=C(NCCCNCc1cc(Br)cc(Br)c1)Nc1ccc(Br)cc1 [8n]		12 to 25 µM	
FC(F)(F)c1cccc(NC(=S)NCCCNCc2cc(Br)cc(Br)c2)c1 [8i]		6 to 12 µM	
COc1ccc(NC(=S)NCCCNCc2cc(Br)cc(Br)c2)cc1 [8t]		25 to 50 µM	
O=C(NCCCNCc1cc(C(F)(F)F)cc(C(F)(F)F)c1)Nc1ccc(C(F)(F)F)cc1 [12o]	50 to 100 µM		
S=C(NCCCNCc1cc(Br)cc(Br)c1)Nc1ccc(I)cc1 [8o]		12 to 25 µM	
S=C(NCCCNCc1cc(Br)cc(Br)c1)Nc1cccc(Br)c1 [8h]		6 to 12 µM	
Fc1cccc(NC(=S)NCCCNCc2cc(Br)cc(Br)c2)c1 [8f]		12 to 25 µM	
O=C(NCCCNCc1cc(F)cc(F)c1)Nc1ccc(C(F)(F)F)cc1 [12n]	50 to 100 µM		
Fc1ccc(NC(=S)NCCCNCc2cc(Br)cc(Br)c2)c(F)c1F [8e]		6 to 12 µM	
CCOc1ccc(Br)cc1CNCCCNC(=O)Nc1ccc(C(F)(F)F)cc1 [12u]	6 to 12 µM		
FC(F)(F)c1ccc(NC(=S)NCCCNCc2cc(Br)cc(Br)c2)cc1 [8p]		6 to 12 µM	
O=[N+]([O-])c1ccc(NC(=S)NCCCNCc2cc(Br)cc(Br)c2)cc1 [8q]		12 to 25 µM	
S=C(NCCCNCc1cc(Br)cc(Br)c1)Nc1ccc(Cl)cc1 [8m]		6 to 12 µM	
CN[C@H](CC(C)C)C(=O)N[C@H]1C(=O)N[C@@H](CC(N)=O)C(=O)N[C@H]2C(=O)N[C@H]3C(=O)N[C@H](C(=O)N[C@H](C(=O)O)c4cc(O)cc(O)c4-c4cc3ccc4O)[C@H](O)c3ccc(c(Cl)c3)Oc3cc2cc(c3O[C@@H]2O[C@H](CO)[C@@H](O)[C@H](O)[C@H]2O[C@H]2C[C@](C)(N)[C@H](O)[C@H](C)O2)Oc2ccc(cc2Cl)[C@H]1O [Vancomycin, reference compound]			Mice Alive/Total [2]: 10/10
O=C(NCCCNCc1ccccc1OC(F)(F)F)Nc1ccc(C(F)(F)F)cc1 [12b]	12 to 25 µM		
S=C(NCCCNCc1cc(Br)cc(Br)c1)Nc1cccc(Cl)c1 [8g]		6 to 12 µM	
O=C(NCCCNCc1cccc(-c2ccccc2)c1)Nc1ccc(C(F)(F)F)cc1 [12c]	6 to 12 µM		
N#Cc1ccc(NC(=S)NCCCNCc2cc(Br)cc(Br)c2)cc1 [8s]		25 to 50 µM	
